The values that follow come from ChEMBL document CHEMBL4038282 (Eur J Med Chem, 2017).

A word on the IC50: it is the concentration needed to halve the response being measured. As a reminder, the solubility is how much of the substance goes into solution per volume. What is called thermodynamic solubility is the concentration in solution at equilibrium with solid.

Converted amounts (≈) assume the structure as drawn.

One data set relates to PC-3. Description: Antiproliferative activity against human PC3 cells up to 72 hrs by MTT assay. To be noted: PC-3, 72 h. The format is functional, cell-based. (Tetrazolium dyes change colour on reduction, which living cells bring about.)
Data set [1] deals with MDA-MB-231. Description: Antiproliferative activity against human MDA-MB-231 cells up to 72 hrs by MTT assay. It is filed as functional, cell-based. To be noted: MDA-MB-231, 72 h.
The subject of data set [2] is MDA-MB-231. As to the kind of experiment: Potency index, ratio of curcumin IC50 to compound IC50 for human MDA-MB-231 cells. The format is functional.
Another data set has as its system HCT-116. As to the kind of experiment: Antiproliferative activity against human HCT116 cells up to 72 hrs by MTT assay. To be noted: HCT-116, 72 h. It is filed as functional, cell-based.
Data set [3] concerns Mus musculus. As to the kind of experiment: Acute-toxicity in nu/nu mouse assessed as changes in body weight at 500 mg/kg, po administered once daily for 5 days measured for 21 days. The format is organism-based. The conditions noted are these: in vivo, 504 h.
Data set [4] deals with MDA-MB-468. As to the kind of experiment: Potency index, ratio of curcumin IC50 to compound IC50 for doxorubicin-resistant human MDA-MB-468 cells. It is filed as functional.
Data set [5] has as its system Mus musculus. As to the kind of experiment: Acute-toxicity in nu/nu mouse assessed as behavioral changes at 500 mg/kg, po administered once daily for 5 days measured for 21 days. The format is organism-based. The conditions noted are these: in vivo, 504 h.
For data set [6], the system named is MDA-MB-468. Description: Antiproliferative activity against doxorubicin-resistant human MDA-MB-468 cells after 24 hrs by MTT assay. The conditions noted are these: MDA-MB-468, 24 h. The format is functional, cell-based.
In data set [7] the test system is Mus musculus. Description: Toxicity in nu/nu mouse assessed as behavioral changes at 1 mg/kg, ip administered once daily for 32 days. It is filed as organism-based. The conditions noted are these: in vivo, 768 h.
The subject of data set [8] is Mus musculus. Description: Toxicity in nu/nu mouse assessed as hematological changes at 1 mg/kg, ip administered once daily for 32 days. The format is organism-based. To be noted: in vivo, 768 h.
For data set [9], the system named is MDA-MB-231. Description: Anti-tumor activity against human MDA-MB-231 cells xenografted in nu/nu mouse assessed as reduction in tumor weight at 1 mg/kg, ip administered once daily for 32 days. It is filed as functional. On the set-up: scale not given: the % may be the effect or the level left. A general note: A xenograft is tissue or cells of one species grown in another, often human tumour cells in immunodeficient mice.

For data set [10], the system named is Mus musculus. Description: Toxicity in nu/nu mouse assessed as change in body weight at 1 mg/kg, ip administered once daily for 32 days. The format is organism-based. To be noted: in vivo, 768 h.
The subject of another data set is SK-BR-3. Description: Antiproliferative activity against HER2 positive human SKBR3 cells after 24 hrs by MTT assay. It is filed as functional, cell-based. The conditions noted are these: SK-BR-3, 24 h.
The test system of a further data set is MCF7. As to the kind of experiment: Antiproliferative activity against ER/PR positive human MCF7 cells after 24 hrs by MTT assay. It is filed as functional, cell-based. The conditions noted are these: MCF7, 24 h.
A short description of data set [11]: Solubility of the compound in ethanol after 24 hrs by shake-flask method. It is filed as physicochemical. The conditions noted are these: 24 h.
For data set [12], the system named is Mus musculus. Description: Toxicity in nu/nu mouse assessed as effect on food consumption at 100 mg/kg, po administered once daily for 32 days measured during compound dosing. The format is organism-based. To be noted: in vivo, 768 h.
For the next data set, the system named is Hs-578T. Description: Antiproliferative activity against human Hs578T cells after 24 hrs by MTT assay. The format is functional, cell-based.
For another data set, the system named is BT-474. As to the kind of experiment: Antiproliferative activity against HER2 positive human BT474 cells after 24 hrs by MTT assay. To be noted: BT-474, 24 h. The format is functional, cell-based.
Data set [13] is described as follows: Solubility of the compound in water after 24 hrs by shake-flask method. It is filed as physicochemical.
The subject of data set [14] is Mus musculus. Description: Toxicity in nu/nu mouse assessed as changes in body weight at 100 mg/kg, po administered once daily for 32 days measured every 4 days during compound dosing. The format is organism-based. The conditions noted are these: in vivo.
In a further data set the test system is T47D. As to the kind of experiment: Antiproliferative activity against ER/PR positive human T47D cells after 24 hrs by MTT assay. The format is functional, cell-based.
For a further data set, the system named is MDA-MB-157. As to the kind of experiment: Antiproliferative activity against human MDA-MB-157 cells after 24 hrs by MTT assay. The format is functional, cell-based. To be noted: MDA-MB-157, 24 h.
Data set [15] relates to MDA-MB-468. Description: Antiproliferative activity against human MDA-MB-468 cells after 24 hrs by MTT assay. The format is functional, cell-based. The conditions noted are these: MDA-MB-468, 24 h.
Data set [16] has as its system Mus musculus. Description: Toxicity in nu/nu mouse assessed as behavioral changes at 100 mg/kg, po administered once daily for 32 days measured during compound dosing. The format is organism-based. The conditions noted are these: in vivo, 768 h.
The next data set relates to MDA-MB-453. Description: Antiproliferative activity against HER2 positive human MDA-MB-453 cells after 24 hrs by MTT assay. The format is functional, cell-based. The conditions noted are these: MDA-MB-453, 24 h.

Consider `COc1cc(/C=C/C(O)=C/C(=O)/C=C/c2ccc(OC(=O)C(C)(CO)CO)c(OC)c2)ccc1O`, for which the IC50 came to 17.4 µM in the data set with PC-3, 5.94 µM with MDA-MB-231 [1] and 15.5 µM in the data set on HCT-116. In the data set on MDA-MB-231 [2], the “Ratio IC50” value is on record as 2.4 - 12.2.

As to `COc1cc(/C=C/C(=O)C(C)(C)C(=O)/C=C/c2ccc(OC(=O)C(C)(CO)CO)c(OC)c2)ccc1OC(=O)C(C)(CO)CO`, the IC50 in the data set with PC-3 worked out at 1.76 µM; in the data set with MDA-MB-231 [1], 1.98 µM; with HCT-116, 1.65 µM; in the data set on MDA-MB-468 [6], 5.71 µM. For the same compound, the “Ratio IC50” value with MDA-MB-231 [2] is 2.4 - 12.2; with MDA-MB-468 [4] it was 10. Moreover, the Activity entry in the data set on Mus musculus [3] and in the data set on Mus musculus [5] was “Non-Toxic” throughout.

Regarding `COc1cc(/C=C/C(=O)C(Cc2ccccc2)(Cc2ccccc2)C(=O)/C=C/c2ccc(OC(=O)C(C)(CO)CO)c(OC)c2)ccc1OC(=O)C(C)(CO)CO`, the IC50 in the data set on PC-3 was determined as 7.28 µM; with MDA-MB-231 [1], 2.11 µM; in the data set with HCT-116 it was 3.88 µM. Besides, in the data set on MDA-MB-231 [2], the “Ratio IC50” value was 2.4 - 12.2.

As to `COc1cccc2c1C(=O)c1c(O)c3c(c(O)c1C2=O)C[C@@](O)(C(=O)CO)C[C@@H]3O[C@H]1C[C@H](N)[C@H](O)[C@H](C)O1` [DOXORUBICIN], the Activity result is recorded as “Non-Toxic” in the data set on Mus musculus [7], “Non-Toxic” with Mus musculus [8], 60% with MDA-MB-231 [9] and “Non-Toxic” in the data set with Mus musculus [10].

Turning to `CC(CO)(CO)C(=O)Oc1ccc(/C=C/C(=O)/C=C(O)/C=C/c2ccc(O)cc2)cc1`, the results for the IC50 in the data set with PC-3 and with MDA-MB-231 [1] were 5.22 µM and 1.33 µM, respectively. The “Ratio IC50” value in the data set on MDA-MB-231 [2] was 12.

`CC(CO)(CO)C(=O)Oc1ccc(/C=C/C(=O)C(C)(C)C(=O)/C=C/c2ccc(OC(=O)C(C)(CO)CO)cc2)cc1`: the IC50 in the data set on PC-3 stood at 3.62 µM; in the data set with MDA-MB-231 [1], 2.98 µM; with HCT-116, 2.63 µM. Moreover, the “Ratio IC50” value with MDA-MB-231 [2] was 2.4 - 12.2.

In the case of `COc1ccc(/C=C/C(O)=C/C(=O)/C=C/c2ccc(OC(=O)C(C)(CO)CO)c(OC)c2)cc1OC`, the IC50 was determined as 7.64 µM in the data set on PC-3, 2.55 µM in the data set with MDA-MB-231 [1] and 4.77 µM in the data set on HCT-116. For the same compound, the “Ratio IC50” value in the data set with MDA-MB-231 [2] is 2.4 - 12.2.

Regarding `CCC(CO)(CO)C(=O)Oc1ccc(/C=C/C(=O)/C=C(O)/C=C/c2ccc(OC(=O)C(CC)(CO)CO)c(OC)c2)cc1OC`, the IC50 with PC-3 was determined as 4.21 µM; in the data set with MDA-MB-231 [1] it was 2 µM; in the data set on HCT-116, 1.34 µM. For the same compound, the “Ratio IC50” value in the data set on MDA-MB-231 [2] is 2.4 - 12.2.

For `COc1ccc(/C=C/C(=O)C(C)(C)C(=O)/C=C/c2ccc(OC)c(OC(=O)C(C)(CO)CO)c2)cc1OC(=O)C(C)(CO)CO`, the IC50 in the data set with MDA-MB-231 [1] amounted to 2.7 µM. The “Ratio IC50” value with MDA-MB-231 [2] is 2.4 - 12.2.

With `COc1ccc(/C=C/C(O)=C/C(=O)/C=C/c2ccc(OC)c(OC(=O)C(C)(CO)CO)c2)cc1O`, the results for the IC50 in the data set on PC-3, with MDA-MB-231 [1] and with HCT-116 were 2.32 µM, 2.29 µM and 1.95 µM, respectively. In the data set with MDA-MB-231 [2], the “Ratio IC50” value was 2.4 - 12.2.

Consider `CCC(CC)(C(=O)/C=C/c1ccc(OC(=O)C(C)(CO)CO)c(OC)c1)C(=O)/C=C/c1ccc(OC(=O)C(C)(CO)CO)c(OC)c1`, for which the IC50 is 2.16 µM in the data set with PC-3, 1.78 µM with MDA-MB-231 [1] and 1.74 µM with HCT-116. Besides, the “Ratio IC50” value in the data set on MDA-MB-231 [2] is given as 2.4 - 12.2.

Take `CCC(CO)(CO)C(=O)Oc1ccc(/C=C/C(=O)/C=C(O)/C=C/c2ccc(O)c(OC)c2)cc1OC`: the IC50 in the data set with PC-3 was 12.5 µM; in the data set with MDA-MB-231 [1], 4.66 µM; with HCT-116 it was 11.4 µM. Moreover, the “Ratio IC50” value in the data set with MDA-MB-231 [2] is recorded as 2.4 - 12.2.

For the compound `CC(CO)(CO)C(=O)Oc1ccc(/C=C/C(=O)/C=C(O)/C=C/c2ccc(OC(=O)C(C)(CO)CO)cc2)cc1`, the figures for the IC50 in the data set on PC-3, in the data set with MDA-MB-231 [1] and in the data set on HCT-116 were 5.59 µM, 6.74 µM and 4.1 µM, respectively. Besides, the “Ratio IC50” value with MDA-MB-231 [2] is given as 2.4 - 12.2.

Consider `COc1cc(/C=C/C(=O)CC(=O)/C=C/c2ccc(O)c(OC)c2)ccc1O` [CURCUMIN], for which the IC50 in the data set on PC-3 was found to be 18.8 µM; in the data set with SK-BR-3, 42.8 µM; in the data set on MDA-MB-231 [1] it was 16.2 µM; with MCF7, 42.9 µM; with Hs-578T, 55.5 µM; in the data set with BT-474, 30.1 µM. The IC50 with T47D came to 47.9 µM; with HCT-116, 13.8 µM; in the data set with MDA-MB-157, 40.4 µM; with MDA-MB-468 [15] it was 42.9 µM; in the data set with MDA-MB-453, 32.4 µM; in the data set on MDA-MB-468 [6] it was 58.6 µM. This compound also returned a solubility in data set [11] of 1860 µg/mL (≈ 5050 µM). Also, the Activity result in the data set on Mus musculus [12], with Mus musculus [14] and with Mus musculus [16] was “Non-Toxic” each time. The same compound returned a solubility (thermodynamic) at 24 h in data set [13] of 0.6 µg/mL (≈ 1.63 µM).

Take `CCC(CO)(CO)C(=O)Oc1cc(/C=C/C(=O)/C=C(O)/C=C/c2ccc(OC)c(O)c2)ccc1OC`: the concentration for half-maximal inhibition (IC50) in the data set with PC-3 is 7.03 µM; with MDA-MB-231 [1] it was 3.85 µM; in the data set with HCT-116 it was 3.64 µM. In addition, in the data set with MDA-MB-231 [2], the “Ratio IC50” value is on record as 2.4 - 12.2.

In the case of `COc1ccc(/C=C/C(=O)/C=C(O)/C=C/c2ccc(OC)c(OC(=O)C(C)(CO)CO)c2)cc1OC(=O)C(C)(CO)CO`, the IC50 worked out at 4.74 µM in the data set on PC-3, 4.61 µM in the data set on MDA-MB-231 [1] and 2.79 µM in the data set with HCT-116. The “Ratio IC50” value in the data set with MDA-MB-231 [2] is listed as 3.5.
